Measured values reported in BindingDB's records for doi:10.1016/j.ejmech.2023.115292 (National Research Centre, 2023).

Experiments:
[1] = Inhibition of SARS-CoV-2 RdRp transfected in human A549 cells incubated for 24 hrs by […]
[2] = Inhibition of SARS-CoV-2 RdRp transfected in HEK293T cells incubated for 24 hrs by […]

Row | Compound | EC50 [1] [nM] | EC50 [2] [nM]
1 | CCOc1cccc(CNC(=O)CSc2cn(C(=O)OC(C)(C)C)c3ccccc23)c1 | 1180 | 1410
2 | O=C(CSc1c[nH]c2ccccc12)c1ccc(Cl)c(Cl)c1 | – | 2750
3 | Cc1cccc(C(=O)CSc2c[nH]c3ccccc23)c1 | – | 2530
